The record followed here is ChEMBL document CHEMBL1201862, “PubChem BioAssay data set” (2004).

Assay [1] concerns the target T1, Zinc finger protein mex-5 (Caenorhabditis elegans, UniProt Q9XUB2).
T1 sequence (Q9XUB2 whole entry): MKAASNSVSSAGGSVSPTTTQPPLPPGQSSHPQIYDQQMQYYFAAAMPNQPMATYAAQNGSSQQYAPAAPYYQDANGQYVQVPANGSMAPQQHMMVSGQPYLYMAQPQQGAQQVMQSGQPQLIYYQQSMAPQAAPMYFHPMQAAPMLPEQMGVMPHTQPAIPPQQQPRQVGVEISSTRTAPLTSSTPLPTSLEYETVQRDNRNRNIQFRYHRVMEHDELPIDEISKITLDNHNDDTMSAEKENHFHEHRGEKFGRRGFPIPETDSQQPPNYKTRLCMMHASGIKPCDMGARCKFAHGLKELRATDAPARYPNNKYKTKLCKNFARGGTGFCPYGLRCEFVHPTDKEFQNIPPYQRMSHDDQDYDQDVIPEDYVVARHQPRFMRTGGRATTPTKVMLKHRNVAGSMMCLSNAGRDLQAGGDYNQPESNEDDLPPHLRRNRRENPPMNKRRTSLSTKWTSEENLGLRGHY
The assay is described as follows: MEX-5/TCR-2 RNA interaction inhibitors, dose response, biochemical, C. elegans, fluorescence polarization (AID 1960).

In the next assay the target is Genome polyprotein (dengue virus type 2, UniProt P29990). Nature of the assay: Dengue-2 NS5 methyltransferase inhibitors, primary screen, biochemical, confirmation dose response (AID 588689). The format is functional.
For assay [2], the target named is T2, Rac GTPase-activating protein 1 (Homo sapiens, UniProt Q9H0H5).
T2 sequence (Q9H0H5 whole entry): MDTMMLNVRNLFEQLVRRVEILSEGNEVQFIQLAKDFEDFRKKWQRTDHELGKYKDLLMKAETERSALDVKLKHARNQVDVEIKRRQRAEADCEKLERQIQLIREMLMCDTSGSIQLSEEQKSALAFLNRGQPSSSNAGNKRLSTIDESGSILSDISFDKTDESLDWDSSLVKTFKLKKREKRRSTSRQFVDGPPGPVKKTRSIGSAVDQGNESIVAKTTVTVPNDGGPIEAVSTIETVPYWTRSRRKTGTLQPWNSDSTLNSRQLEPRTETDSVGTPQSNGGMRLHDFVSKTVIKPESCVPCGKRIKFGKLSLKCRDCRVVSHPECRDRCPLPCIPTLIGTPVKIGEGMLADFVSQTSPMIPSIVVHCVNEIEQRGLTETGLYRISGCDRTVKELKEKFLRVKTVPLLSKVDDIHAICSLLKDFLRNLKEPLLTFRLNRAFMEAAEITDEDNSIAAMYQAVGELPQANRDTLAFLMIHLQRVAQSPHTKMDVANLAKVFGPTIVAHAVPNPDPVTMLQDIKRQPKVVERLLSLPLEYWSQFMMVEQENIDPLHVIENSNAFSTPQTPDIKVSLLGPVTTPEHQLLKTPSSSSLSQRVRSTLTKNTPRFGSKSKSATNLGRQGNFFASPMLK
Nature of the assay: MgcRacGAP GTPase-activating activity inhibitors, confirmation, biochemical, ADP Hunter fluorescence, primary and confirmatory (AID 624330). It is filed as functional.

Assay [3] addresses T3, RNA-binding protein pos-1 (Caenorhabditis elegans, UniProt G5EF15).
T3 sequence (G5EF15 whole entry): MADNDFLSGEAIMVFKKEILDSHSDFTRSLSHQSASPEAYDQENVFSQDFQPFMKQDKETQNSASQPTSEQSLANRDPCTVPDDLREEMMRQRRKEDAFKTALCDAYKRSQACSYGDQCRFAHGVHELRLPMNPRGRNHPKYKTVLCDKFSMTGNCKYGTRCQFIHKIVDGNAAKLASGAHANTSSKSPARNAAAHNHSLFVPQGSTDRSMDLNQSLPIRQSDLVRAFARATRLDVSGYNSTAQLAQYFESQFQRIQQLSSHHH
Nature of the assay: inhibitors of POS-1/mex-3 RNA binding, dose response, biochemical, fluorescence polarization (AID 1964).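 Further: purified POS-1 fused to maltose binding protein made in E. coli; potency of compounds blocking POS-1 binding to fluorescent RNA.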

Assay [4] addresses T4, Polyadenylate-binding protein 1 (Homo sapiens, UniProt P11940). The assay is described as follows: PABP1 MLLE–PAM2 interaction inhibitors, dose response, miRNA deadenylation inhibitor project, biochemical, fluorescence polarization, Cy5-PAM2 peptide, secondary (AID 602260). It is filed as functional. The following applies: read-out: IC50_Mean.
A further assay deals with T5, Aminopeptidase N (Plasmodium falciparum FcB1/Columbia, UniProt O96935).
T5 sequence (O96935 whole entry): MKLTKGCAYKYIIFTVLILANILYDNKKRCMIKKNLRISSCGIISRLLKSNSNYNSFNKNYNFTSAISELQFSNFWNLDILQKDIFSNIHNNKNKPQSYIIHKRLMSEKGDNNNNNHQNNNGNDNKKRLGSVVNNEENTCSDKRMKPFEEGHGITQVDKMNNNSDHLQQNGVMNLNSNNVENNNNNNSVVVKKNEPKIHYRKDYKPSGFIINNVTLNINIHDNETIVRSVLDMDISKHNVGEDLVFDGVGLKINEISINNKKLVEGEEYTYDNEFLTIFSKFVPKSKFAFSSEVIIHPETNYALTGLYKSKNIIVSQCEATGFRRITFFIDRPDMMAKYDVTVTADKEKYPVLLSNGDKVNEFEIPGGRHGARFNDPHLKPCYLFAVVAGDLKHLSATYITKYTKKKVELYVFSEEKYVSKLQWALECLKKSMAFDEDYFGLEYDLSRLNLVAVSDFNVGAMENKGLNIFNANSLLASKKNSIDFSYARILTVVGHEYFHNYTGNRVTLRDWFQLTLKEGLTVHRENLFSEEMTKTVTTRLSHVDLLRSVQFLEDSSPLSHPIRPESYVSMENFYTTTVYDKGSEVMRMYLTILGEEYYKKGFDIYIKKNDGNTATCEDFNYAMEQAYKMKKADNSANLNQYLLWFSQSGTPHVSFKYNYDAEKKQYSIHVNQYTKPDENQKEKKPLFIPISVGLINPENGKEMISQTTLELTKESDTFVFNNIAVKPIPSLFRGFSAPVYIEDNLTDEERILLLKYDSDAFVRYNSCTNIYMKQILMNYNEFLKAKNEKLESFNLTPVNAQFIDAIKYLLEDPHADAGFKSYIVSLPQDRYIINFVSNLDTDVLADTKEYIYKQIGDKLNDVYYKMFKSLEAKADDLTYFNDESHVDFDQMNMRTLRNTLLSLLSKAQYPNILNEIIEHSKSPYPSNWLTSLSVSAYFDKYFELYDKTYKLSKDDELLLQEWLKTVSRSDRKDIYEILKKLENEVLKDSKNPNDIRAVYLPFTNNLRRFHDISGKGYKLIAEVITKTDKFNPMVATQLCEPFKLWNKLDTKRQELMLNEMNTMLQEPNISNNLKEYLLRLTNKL
Nature of the assay: P. falciparum M1AAP inhibitors, biochemical, fluorogenic H-Leu-NHMec substrate, 1536-well (AID 1445). More on the design: species or system Plasmodium falciparum 3D7, 3D7.

For assay [5], the target named is T4, Polyadenylate-binding protein 1. The assay is described as follows: PABP1 MLLE–PAM2 binding inhibitor potency, dose response, biochemical, fluorescence polarization, FITC-PAM2 peptide (AID 602259). It is filed as functional. As to conditions: read-out: IC50_Mean.
For assay [6], the target named is T6, Microphthalmia-associated transcription factor (Homo sapiens, UniProt O75030).
T6 sequence (O75030 whole entry): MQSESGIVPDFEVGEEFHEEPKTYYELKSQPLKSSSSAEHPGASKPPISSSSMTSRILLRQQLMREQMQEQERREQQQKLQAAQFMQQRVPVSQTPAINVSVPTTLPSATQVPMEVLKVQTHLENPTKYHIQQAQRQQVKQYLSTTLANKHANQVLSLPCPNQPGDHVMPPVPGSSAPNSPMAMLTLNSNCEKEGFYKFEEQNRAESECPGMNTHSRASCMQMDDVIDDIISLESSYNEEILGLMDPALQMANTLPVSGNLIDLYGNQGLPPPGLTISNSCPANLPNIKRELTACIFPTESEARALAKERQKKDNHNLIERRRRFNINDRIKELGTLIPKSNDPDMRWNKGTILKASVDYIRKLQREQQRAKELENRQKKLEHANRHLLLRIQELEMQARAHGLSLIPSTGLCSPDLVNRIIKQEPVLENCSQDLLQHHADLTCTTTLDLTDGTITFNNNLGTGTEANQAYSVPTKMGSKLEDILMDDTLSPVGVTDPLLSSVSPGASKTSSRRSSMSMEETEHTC
Nature of the assay: TRPM1 promoter luciferase signal decrease, dose response, MITF inhibitor project, cell-based, SK-MEL-5, cherry-picked, set 3 (AID 493073).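 Further: SK-MEL-5 melanoma cells with luciferase driven by the MITF target TRPM1 promoter.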 The format is functional.

Assay [7] is described as follows: Luminescence Cell-Based Dose Retest to Confirm Inhibitors of Cancer Stem Cells. [Related pubchem assays (depositor defined):AID2717, AID2721]. The format is functional. As to conditions: Homo sapiens.
The next assay concerns the target Cytochrome P450 2C9 (Homo sapiens, UniProt P11712).
Assay [8] concerns the target T7, Voltage-gated N-type calcium channel alpha-1B subunit/Amyloid beta A4 precursor protein-binding family A member 1 (Homo sapiens, UniProt Q00975+Q02410). It is filed as protein assay.
For another assay, the target named is Cytochrome P450 2C19 (Homo sapiens, UniProt P33261). Nature of the assay: Cytochrome panel assay with activity outcomes. Panel member name: p450-cyp2c19 Compounds with AC50 equal or less than 10 uM are considered active. It is filed as functional. As to conditions: read-out: AC50.
In assay [9] the target is T7, Voltage-gated N-type calcium channel alpha-1B subunit/Amyloid beta A4 precursor protein-binding family A member 1. It is filed as protein assay. This is another data set of the same source.
Assay [10] in a line: cytotoxicity in MIN6 insulinoma cells, dose response, cytotoxicity control, cell-based, mouse insulinoma (AID 2122).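 Further: confirmatory high-throughput counterscreen run to flag cytotoxic compounds; mouse MIN-6 beta cells carrying an insulin promoter eGFP reporter.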 The format is functional.
A short description of assay [11]: insulin promoter down-regulators in MIN6 cells, imaging, high-content screening, mouse beta cells (AID 1628). The format is functional.
The target in assay [12] is T8, High affinity choline transporter 1 (Homo sapiens, UniProt Q9GZV3).
T8 sequence (Q9GZV3 whole entry): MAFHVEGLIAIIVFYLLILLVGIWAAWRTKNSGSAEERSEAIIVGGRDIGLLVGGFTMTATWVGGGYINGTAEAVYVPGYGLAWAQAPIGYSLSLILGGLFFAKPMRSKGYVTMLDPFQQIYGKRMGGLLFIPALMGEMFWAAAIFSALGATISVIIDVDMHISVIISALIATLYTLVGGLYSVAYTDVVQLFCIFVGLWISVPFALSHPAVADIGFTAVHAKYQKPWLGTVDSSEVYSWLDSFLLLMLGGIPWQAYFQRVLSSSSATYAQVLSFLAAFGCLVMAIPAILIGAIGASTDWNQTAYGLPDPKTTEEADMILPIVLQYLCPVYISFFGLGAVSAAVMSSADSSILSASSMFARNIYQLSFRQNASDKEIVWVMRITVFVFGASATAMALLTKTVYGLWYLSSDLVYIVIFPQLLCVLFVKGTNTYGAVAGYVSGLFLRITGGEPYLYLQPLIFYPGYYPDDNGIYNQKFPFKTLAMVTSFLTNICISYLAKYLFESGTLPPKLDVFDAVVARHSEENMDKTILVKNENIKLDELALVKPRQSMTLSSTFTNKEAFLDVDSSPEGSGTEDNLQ
The assay is described as follows: CHT inhibitors, dose response, cell-based, 5-point CRC, membrane potential dye (AID 504840). The format is functional.

Activity calls are given as the source filed them.

T4 sequence (P11940 whole entry): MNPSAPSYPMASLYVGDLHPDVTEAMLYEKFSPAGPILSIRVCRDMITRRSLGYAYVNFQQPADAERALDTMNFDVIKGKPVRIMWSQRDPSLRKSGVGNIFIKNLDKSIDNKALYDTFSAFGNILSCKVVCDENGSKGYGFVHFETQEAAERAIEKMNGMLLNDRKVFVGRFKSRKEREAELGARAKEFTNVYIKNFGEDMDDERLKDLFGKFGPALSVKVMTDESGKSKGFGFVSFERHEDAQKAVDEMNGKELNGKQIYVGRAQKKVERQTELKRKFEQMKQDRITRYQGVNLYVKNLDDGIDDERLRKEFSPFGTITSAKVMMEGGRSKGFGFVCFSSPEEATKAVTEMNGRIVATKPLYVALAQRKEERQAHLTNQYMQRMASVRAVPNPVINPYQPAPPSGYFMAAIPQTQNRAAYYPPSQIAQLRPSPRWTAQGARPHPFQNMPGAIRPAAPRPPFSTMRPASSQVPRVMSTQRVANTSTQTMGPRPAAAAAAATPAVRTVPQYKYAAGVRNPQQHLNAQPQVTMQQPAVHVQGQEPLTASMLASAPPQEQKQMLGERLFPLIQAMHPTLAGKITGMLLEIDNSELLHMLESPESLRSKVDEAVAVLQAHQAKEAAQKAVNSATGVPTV
T7 sequence (Q00975 whole entry): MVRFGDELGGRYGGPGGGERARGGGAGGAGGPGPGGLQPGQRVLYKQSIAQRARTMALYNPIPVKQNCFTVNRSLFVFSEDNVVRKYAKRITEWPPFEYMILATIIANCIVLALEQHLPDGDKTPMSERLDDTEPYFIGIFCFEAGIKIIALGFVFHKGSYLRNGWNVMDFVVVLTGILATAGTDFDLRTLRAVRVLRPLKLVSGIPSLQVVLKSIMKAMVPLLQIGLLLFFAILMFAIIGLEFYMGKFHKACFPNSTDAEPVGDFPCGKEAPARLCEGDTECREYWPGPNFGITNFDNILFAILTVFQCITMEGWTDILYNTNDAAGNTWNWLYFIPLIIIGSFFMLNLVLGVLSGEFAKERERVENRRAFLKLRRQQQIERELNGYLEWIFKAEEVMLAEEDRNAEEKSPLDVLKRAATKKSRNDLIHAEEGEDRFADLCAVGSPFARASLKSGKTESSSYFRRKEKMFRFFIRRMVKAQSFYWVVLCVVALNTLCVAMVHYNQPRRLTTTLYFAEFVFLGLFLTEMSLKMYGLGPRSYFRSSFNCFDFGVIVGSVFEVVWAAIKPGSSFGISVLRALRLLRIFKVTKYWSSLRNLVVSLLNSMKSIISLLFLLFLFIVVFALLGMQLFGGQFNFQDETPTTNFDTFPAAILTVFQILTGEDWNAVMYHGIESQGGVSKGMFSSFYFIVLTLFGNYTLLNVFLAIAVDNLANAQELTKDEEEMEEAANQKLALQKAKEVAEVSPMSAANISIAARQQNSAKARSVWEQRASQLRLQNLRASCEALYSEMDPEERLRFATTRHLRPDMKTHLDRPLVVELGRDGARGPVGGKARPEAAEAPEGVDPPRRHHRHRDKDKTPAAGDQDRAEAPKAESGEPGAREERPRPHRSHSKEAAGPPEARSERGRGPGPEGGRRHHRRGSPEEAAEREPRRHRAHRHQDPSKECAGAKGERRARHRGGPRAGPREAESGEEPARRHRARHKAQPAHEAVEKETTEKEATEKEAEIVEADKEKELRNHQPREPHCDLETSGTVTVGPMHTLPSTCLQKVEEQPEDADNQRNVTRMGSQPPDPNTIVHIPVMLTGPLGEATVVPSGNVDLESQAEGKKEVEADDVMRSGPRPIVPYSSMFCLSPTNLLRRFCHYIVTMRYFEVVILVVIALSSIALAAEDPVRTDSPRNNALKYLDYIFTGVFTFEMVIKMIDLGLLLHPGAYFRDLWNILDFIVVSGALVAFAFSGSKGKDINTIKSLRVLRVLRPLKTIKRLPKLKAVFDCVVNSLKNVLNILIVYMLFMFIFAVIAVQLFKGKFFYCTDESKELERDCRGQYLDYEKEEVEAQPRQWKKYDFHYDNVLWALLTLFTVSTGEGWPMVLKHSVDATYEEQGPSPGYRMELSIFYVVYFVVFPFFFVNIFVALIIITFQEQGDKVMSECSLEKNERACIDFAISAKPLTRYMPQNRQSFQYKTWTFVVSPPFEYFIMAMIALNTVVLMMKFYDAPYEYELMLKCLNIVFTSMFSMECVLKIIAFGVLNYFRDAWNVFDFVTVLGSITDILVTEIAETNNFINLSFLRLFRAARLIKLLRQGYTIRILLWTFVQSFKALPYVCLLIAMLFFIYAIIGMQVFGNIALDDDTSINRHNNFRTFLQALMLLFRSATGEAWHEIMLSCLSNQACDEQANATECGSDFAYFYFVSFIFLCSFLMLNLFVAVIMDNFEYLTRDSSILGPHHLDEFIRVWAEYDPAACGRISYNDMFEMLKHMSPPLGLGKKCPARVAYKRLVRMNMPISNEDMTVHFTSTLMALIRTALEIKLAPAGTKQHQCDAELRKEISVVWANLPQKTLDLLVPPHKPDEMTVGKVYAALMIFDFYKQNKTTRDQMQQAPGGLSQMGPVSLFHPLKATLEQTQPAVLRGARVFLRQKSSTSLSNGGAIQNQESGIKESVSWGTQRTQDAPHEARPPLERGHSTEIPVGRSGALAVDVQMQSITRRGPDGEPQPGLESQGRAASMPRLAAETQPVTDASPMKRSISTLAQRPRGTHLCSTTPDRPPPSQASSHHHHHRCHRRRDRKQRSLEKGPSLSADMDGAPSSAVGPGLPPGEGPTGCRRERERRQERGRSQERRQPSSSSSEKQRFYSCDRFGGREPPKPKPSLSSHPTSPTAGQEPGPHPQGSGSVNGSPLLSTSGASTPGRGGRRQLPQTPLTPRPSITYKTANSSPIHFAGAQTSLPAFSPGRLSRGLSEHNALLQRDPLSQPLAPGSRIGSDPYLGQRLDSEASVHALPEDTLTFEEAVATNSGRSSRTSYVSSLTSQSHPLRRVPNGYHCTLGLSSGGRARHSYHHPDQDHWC
T7 sequence (Q02410 whole entry): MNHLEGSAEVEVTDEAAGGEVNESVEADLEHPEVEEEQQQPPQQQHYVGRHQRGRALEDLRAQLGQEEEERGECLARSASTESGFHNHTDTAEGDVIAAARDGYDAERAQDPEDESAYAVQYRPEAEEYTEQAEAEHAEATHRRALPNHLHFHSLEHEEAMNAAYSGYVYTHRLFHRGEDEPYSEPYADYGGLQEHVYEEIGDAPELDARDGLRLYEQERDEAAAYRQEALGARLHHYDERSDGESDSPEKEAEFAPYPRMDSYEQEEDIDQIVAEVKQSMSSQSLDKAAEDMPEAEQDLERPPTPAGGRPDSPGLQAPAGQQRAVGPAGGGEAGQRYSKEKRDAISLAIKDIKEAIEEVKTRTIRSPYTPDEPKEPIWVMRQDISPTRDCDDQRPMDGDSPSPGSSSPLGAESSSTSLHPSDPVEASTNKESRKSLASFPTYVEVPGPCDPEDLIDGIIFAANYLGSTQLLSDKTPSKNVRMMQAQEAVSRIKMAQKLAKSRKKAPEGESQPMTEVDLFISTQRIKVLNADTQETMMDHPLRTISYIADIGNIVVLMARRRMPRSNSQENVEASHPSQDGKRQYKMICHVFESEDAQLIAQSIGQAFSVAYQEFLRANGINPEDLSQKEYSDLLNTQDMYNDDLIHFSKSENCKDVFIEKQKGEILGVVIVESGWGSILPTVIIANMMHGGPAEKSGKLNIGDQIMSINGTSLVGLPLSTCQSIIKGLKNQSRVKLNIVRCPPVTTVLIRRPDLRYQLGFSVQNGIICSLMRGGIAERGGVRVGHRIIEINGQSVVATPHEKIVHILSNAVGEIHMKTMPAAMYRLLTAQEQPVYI
Sequence of Genome polyprotein (P29990 2492-3391 limits assumed): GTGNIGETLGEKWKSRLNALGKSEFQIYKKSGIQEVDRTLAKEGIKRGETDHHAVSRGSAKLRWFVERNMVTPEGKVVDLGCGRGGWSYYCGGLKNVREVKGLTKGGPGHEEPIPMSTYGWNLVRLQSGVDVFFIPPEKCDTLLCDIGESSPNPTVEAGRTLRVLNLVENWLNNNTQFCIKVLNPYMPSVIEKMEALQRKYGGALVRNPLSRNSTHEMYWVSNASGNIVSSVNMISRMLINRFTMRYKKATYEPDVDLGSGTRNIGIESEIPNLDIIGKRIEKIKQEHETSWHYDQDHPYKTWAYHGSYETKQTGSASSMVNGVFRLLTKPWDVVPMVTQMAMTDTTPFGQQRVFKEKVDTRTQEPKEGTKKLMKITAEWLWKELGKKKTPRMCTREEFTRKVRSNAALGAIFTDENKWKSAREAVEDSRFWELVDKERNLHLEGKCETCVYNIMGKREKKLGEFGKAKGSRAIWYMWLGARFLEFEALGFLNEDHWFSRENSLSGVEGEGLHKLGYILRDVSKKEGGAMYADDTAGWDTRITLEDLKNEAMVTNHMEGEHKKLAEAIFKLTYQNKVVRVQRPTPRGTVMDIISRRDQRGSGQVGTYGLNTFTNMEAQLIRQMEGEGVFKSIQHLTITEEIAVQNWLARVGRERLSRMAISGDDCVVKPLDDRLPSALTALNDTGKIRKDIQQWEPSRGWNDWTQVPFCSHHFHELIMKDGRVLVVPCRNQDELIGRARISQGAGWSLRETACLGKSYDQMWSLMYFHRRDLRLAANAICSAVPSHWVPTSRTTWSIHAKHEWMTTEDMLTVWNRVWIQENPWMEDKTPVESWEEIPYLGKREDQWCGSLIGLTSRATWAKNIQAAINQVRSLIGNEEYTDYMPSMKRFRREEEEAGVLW

Consider `CSc1nc(S)c2[nH]c(S)nc2n1`, for which the EC50 in assay [1] is 4.78 µM (active); in [3] it was 5.15 µM (active). In addition, the IC50 on Genome polyprotein was 30.6 µM (active); in assay [2] it was 32.7 µM (active).
In the case of `COc1cc(/C=C2/SC(NS(=O)(=O)c3ccccc3)=NC2=O)c([N+](=O)[O-])cc1OC`, the IC50 on Genome polyprotein was 45.8 µM (active); in assay [4] it was > 66 µM (inactive); at Aminopeptidase N, 24.1 µM (active); in assay [5], > 66 µM (inactive).
For the molecule `Cc1ccc(N2C(=O)NC(=O)/C(=C/C=C/c3ccco3)C2=O)cc1`, the AC50 is 5.97 µM (active) in assay [6] and 1.65 µM (active) in [7].
For `COc1ccc(CC(=O)Nc2ccc(-c3nnc(-c4ccccc4)o3)cc2)cc1`, the figures for the AC50 on Cytochrome P450 2C9 and at Cytochrome P450 2C19 were 224 nM (inconclusive) and 1.26 µM (inconclusive), respectively. In addition, the IC50 in assay [8] was 8.88 µM (active); in assay [9], > 50 µM (inactive).
Consider `CC1(C)CC(N2CCCC2)=CC(=[N+]2CCCCC2)C1`, for which the IC50 in assay [10] and in assay [11] was < 250 nM (active) in each case.
Regarding `CCc1ccc(OC(C)C(=O)Nc2ccc(S(=O)(=O)Nc3nccs3)cc2)cc1` (centres undefined), in [12], the IC50 was 13.8 µM (active).
As to `O=C(CCl)Nc1cccc(S(=O)(=O)NC2=NCCCCC2)c1`, in assay [6], the AC50 is 7.85 µM (active).
For `CCOC(=O)C1=C(C)N=c2s/c(=C/c3cccc([N+](=O)[O-])c3O)c(=O)n2C1c1cc(OC)c(OC)c(OC)c1` (centres undefined), in [12], the IC50 was 13.2 µM (active).
